From BindingDB's records for doi:10.1016/s0960-894x(03)00205-1 (Abbott Laboratories, 2003)

Experiment: Potassium channel opening activity in vitro using LtK cells transfected with Kir6.2/SUR2B exon 17

Row | Compound | EC50
1 | CC(=O)Nc1c(C(O)(C(F)(F)F)C(F)(F)F)cc(Br)c2ccccc12 [N-[4-Bromo-2-(2,2,2-trifluoro-1-hydroxy-1-trifluoromethyl-ethyl)-naphthalen-1-yl]-acetamide] | 5310 nM
2 | CC(=O)Nc1c(C(O)(C(F)(F)F)C(F)(F)F)ccc2c(O)cccc12 [N-[5-Hydroxy-2-(2,2,2-trifluoro-1-hydroxy-1-trifluoromethyl-ethyl)-naphthalen-1-yl]-acetamide] | 137 nM
3 | CC(=O)Nc1c(C(O)(C(F)(F)F)C(F)(F)F)ccc2cc(O)ccc12 [N-[6-Hydroxy-2-(2,2,2-trifluoro-1-hydroxy-1-trifluoromethyl-ethyl)-naphthalen-1-yl]-acetamide] | 2220 nM
4 | O=C(Nc1c(C(O)(C(F)(F)F)C(F)(F)F)ccc2ccccc12)c1cnc2ccccc2n1 [Quinoxaline-2-carboxylic acid [2-(2,2,2-trifluoro-1-hydroxy-1-trifluoromethyl-ethyl)-naphthalen-1-yl]-amide] | 317 nM
5 | CC(C)OC(=O)Nc1c(C(O)(C(F)(F)F)C(F)(F)F)ccc2ccccc12 [[2-(2,2,2-Trifluoro-1-hydroxy-1-trifluoromethyl-ethyl)-naphthalen-1-yl]-carbamic acid isopropyl ester] | 1160 nM

Other lines, results leading:

Row | EC50 | Compound
6 | 6630 nM | CC(C)C(=O)Nc1c(C(O)(C(F)(F)F)C(F)(F)F)ccc2ccccc12 [N-[2-(2,2,2-Trifluoro-1-hydroxy-1-trifluoromethyl-ethyl)-naphthalen-1-yl]-isobutyramide]
7 | 60 nM | O=C(Nc1c(C(O)(C(F)(F)F)C(F)(F)F)ccc2ccccc12)c1cccnc1 [N-[2-(2,2,2-Trifluoro-1-hydroxy-1-trifluoromethyl-ethyl)-naphthalen-1-yl]-nicotinamide]
8 | 15 nM | CCC(=O)Nc1c(C(O)(C(F)(F)F)C(F)(F)F)ccc2ccccc12 [N-[2-(2,2,2-Trifluoro-1-hydroxy-1-trifluoromethyl-ethyl)-naphthalen-1-yl]-propionamide]
9 | 24 nM | O=C(Nc1c(C(O)(C(F)(F)F)C(F)(F)F)ccc2ccccc12)c1cnco1 [Oxazole-5-carboxylic acid [2-(2,2,2-trifluoro-1-hydroxy-1-trifluoromethyl-ethyl)-naphthalen-1-yl]-amide]
10 | 12 nM | O=C(Nc1c(C(O)(C(F)(F)F)C(F)(F)F)ccc2ccccc12)c1cccs1 [Thiophene-2-carboxylic acid [2-(2,2,2-trifluoro-1-hydroxy-1-trifluoromethyl-ethyl)-naphthalen-1-yl]-amide]
